Test system: lymphoma
Assay: Lymphoma incidence in mice (National Institute of Health experiment)
Assay type: in vivo
Conditions: reduced from 10-20%
Description: In another experiment at the National Institute of Health, in other mice after radiation exposure which caused 90% of them to develop lymphoma, there was a reduction of the lymphoma incidence to 40% and the spontaneous frequency was reduced from 10-20% down to 0%. […] This was observed after treating mice right after birth, if humans are treated later in life it is possible that only 10 or 5 years are added and probably more for DNA repair deficient diseases like ataxia telangiectasia (ATM) which is still very substantial, especially, since it treats and reduces the likelihood of many diseases.

COc1ccc2cc(-c3nc4ccc(C)cn4c3NCc3ccco3)c(=O)[nH]c2c1 [YEL002]
spontaneous lymphoma frequency: 0%
